Reference: US20220232831A1, “NOVEL NON-CODING HETEROCYCLIC AMINO ACIDS (NCHAA) AND THEIR USE AS HERBICIDES” (Fortephest Ltd., priority 2019, published 2022)
Where a SMILES comes first, the peptide text is derived from it. [ ]: non-standard residue; d: D form. ξ: configuration not given here. ξ3Thi = NC(Cc1ccsc1)C(=O)O

Tests used:
[1] = test system: Seeds of Lettuce R. (Super-Jericho); experiment: Filter paper bioassay with lettuce seeds (germination and early plant development); assay type: in vivo; details: lettuce seeds on filter paper; 1, 0.1, 0.01, 0.001 mM; radicle and shoots assessed after 6 days
Protocol: Seeds of Lettuce R. (Super-Jericho, non-sterilized) were obtained from Ben Shahar Moshe Ltd., 99% purity.
Filter Paper Bioassays with Lettuce Seeds:
The protocol is following Bertin et al. 2009 and Movellan et al. 2014 with specified modifications as described below.
Seeds were placed on Whatman no. 1 filter paper (Whatman, Middlesex, U.K.) in Petri dishes (10 seeds per plate) supplemented with 2.0 ml of water (Control) or with a solution comprising 1 mM, 0.1 mM, 0.01 mM and 0.001 mM of test material. Petri dishes with seeds were placed in a tray at an angle of 45°. The trays were kept in dark for 48 hours and then transferred to the growth chamber (22° C., 0.045 mmol×m−2×s−1 photosynthetic photon flux density; 6/18 dark/light cycle) for additional 4 days. Each experiment was performed at least in two repeats. The development of radicle and shoots of experimental and control plants were visually assessed 6 days after the beginning of the test to determine Minimal Effective Concentration (MEC) of test material. In the context of the invention, MEC is defined as the lowest concentration level of a test material that caused deviation (absence of germination or malformation of radicle and shoots) from the plant's development in the Control group.

[2] = test system: Romaine lettuce (Lactuca sativa L.) plants; experiment: Post-emergency herbicidal activity on Romaine lettuce plants; assay type: in vivo; details: Romaine lettuce at stage 2 to 3 leaves; compound in 0.1% Silwet, up to 0.5%; visual evaluation vs control plants
Protocol: The tests were performed on Romaine lettuce (Lactuca sativa L.) plants at the stage 2 to 3 leaves. The plants were grown on 300 well trays packed with soil, well dimensions 2×2×5 cm. Each compound was dissolved in 0.1% water solution of agronomically acceptable surfactant Silwet to final concentrations ranging from 0.0% (Control) to 0.5%. Two weeks after the treatment the herbicidal effects of the respective test material were visually evaluated by a comparison with the control plants. In addition, the aboveground part of the plant was neatly cut and weighed (wet weight). Each test was performed on 20 to 40 plants. The degree of growth inhibition and damage was evaluated according to the parameters in Table 2. Plant development at 7, 14, and 21 DAA (days after application) were evaluated on a scale of 0 to 100, in which score 0 represents dead plants and score 100 represents healthy plants according to plant vigor, height, and leaf color. Each test included 20 to 40 plants.

SMILES	Minimal Effective Concentration (MEC) as activity score, seeds germination & early plants development [1]	post-emergency herbicidal activity (Activity Index: plant's development vs Control) [2]
NC(Cc1c(Cl)cncc1Cl)C(=O)O (stereo not drawn) [Code 629]	Weak (More than 1 mM)	Moderate (From 50 to 75)
NC(Cc1cc(Br)nc(Br)c1)C(=O)O (stereo not drawn) [Code 634]	Strong (0.1 mM)	Very Strong (From 15 to 25)
NC(Cc1nccc(O)n1)C(=O)O (stereo not drawn) [Code 619]	Weak (More than 1 mM)	Weak (More than 75)
Nc1cc(CC(N)C(=O)O)ccn1 (stereo not drawn) [Code 608]	Moderate (1 mM)	Moderate (From 50 to 75)
CCOC(=O)C(Cc1nc(Cl)sc1Cl)NC(C)=O (stereo not drawn) [Code 567]	Weak (More than 1 mM)	Maximal (Less than 15)
CCOC(=O)C(Cc1csc[n+]1C)NC(C)=O.[Cl-] (stereo not drawn) [Code 576]	Moderate (1 mM)	Maximal (Less than 15)
Cn1cnnc1CC(N)C(=O)O (stereo not drawn) [Code 717]		Weak (More than 75)
O=C1C=C(CC(NP(=O)(O)O)C(=O)O)C(=O)S1 (stereo not drawn) [Code 565]	Strong (0.1 mM)	Weak (More than 75)
NC(CCc1cc[nH]c1)C(=O)O (stereo not drawn) [Code 702]	Weak (More than 1 mM)	Weak (More than 75)
Cc1sc(Cl)cc1CC(N)C(=O)O (stereo not drawn) [Code 559]		Moderate (From 50 to 75)
NC(CC1=NCSC1)C(=O)O (stereo not drawn) [Code 519]	Maximal (0.01 mM and less)	Moderate (From 50 to 75)
NC(Cc1csc(C(F)(F)F)c1)C(=O)O (stereo not drawn) [Code 556]	Strong (0.1 mM)	Maximal (Less than 15)
NC(Cc1cncs1)C(=O)O (stereo not drawn) [Code 520]	Strong (0.1 mM)	Weak (More than 75)
NC(Cc1nc(Cl)sc1Cl)C(=O)O (stereo not drawn) [Code 527]	Moderate (1 mM)	Maximal (Less than 15)
NC(CNS(=O)(=O)c1cscc1F)C(=O)O (stereo not drawn) [Code 506]	Weak (More than 1 mM)	Weak (More than 75)
Cc1nc(N)c(CC(N)C(=O)O)c(O)n1 (stereo not drawn) [Code 669]	Weak (More than 1 mM)	Weak (More than 75)
COC(=O)C(N)CNS(=O)(=O)c1ccsc1 (stereo not drawn) [Code 507]	Weak (More than 1 mM)	Weak (More than 75)
NC(CNS(=O)(=O)c1c(Cl)sc(Cl)c1C(F)(F)F)C(=O)O (stereo not drawn) [Code 521]	Weak (More than 1 mM)	Weak (More than 75)
NC(Cc1ccsc1)C(=O)NCC(=O)O (stereo not drawn) [Code 548] (H-[ξ3Thi]-Gly-OH)		Strong (From 25 to 50)
Cc1sc(C)c(CC(N)C(=O)O)c1C (stereo not drawn) [Code 512]	Weak (More than 1 mM)	Weak (More than 75)
NC(Cc1ncns1)C(=O)O (stereo not drawn) [Code 532]	Strong (0.1 mM)	Moderate (From 50 to 75)
NC(CP(=O)(O)O)c1ccsc1 (stereo not drawn) [Code 563]	Weak (More than 1 mM)	Weak (More than 75)
NC(Cc1cc(Br)sc1Br)C(=O)O (stereo not drawn) [Code 552]	Moderate (1 mM)	Maximal (Less than 15)

SMILES	Minimal Effective Concentration (MEC) as activity score, seeds germination & early plants development [1]	post-emergency herbicidal activity (Activity Index: plant's development vs Control) [2]
CCOCCOCCOC(=O)C(N)Cc1ccc(Br)nc1 (stereo not drawn) [Code 675]	Strong (0.1 mM)	Moderate (From 50 to 75)
O=C(O)[C@@H](O)Cc1c[nH]cn1 [Code 710]	Weak (More than 1 mM)	Weak (More than 75)
COC(=O)C(N)CNS(=O)(=O)c1cc(Cl)sc1Cl (stereo not drawn) [Code 523]	Weak (More than 1 mM)	Weak (More than 75)
O=CNC(Cc1ccsc1)C(=O)O (stereo not drawn) [Code 545]	Weak (More than 1 mM)	Weak (More than 75)
CCCC(=O)NC(Cc1nc(Cl)sc1Cl)C(=O)OCC (stereo not drawn) [Code 550]		Maximal (Less than 15)
CCCOC(=O)C(N)Cc1cc(Cl)oc1Cl (stereo not drawn) [Code 575]	Strong (0.1 mM)	Moderate (From 50 to 75)
CCOC(=O)C(N)CNS(=O)(=O)c1cc(Cl)sc1Cl (stereo not drawn) [Code 524]	Weak (More than 1 mM)	Weak (More than 75)
CN(C)c1ccncc1CC(N)C(=O)O (stereo not drawn) [Code 643]	Weak (More than 1 mM)	Weak (More than 75)
NC(Cc1cc(=O)[nH]c(S)n1)C(=O)O (stereo not drawn) [Code 653]	Weak (More than 1 mM)	Weak (More than 75)
NC(CNS(=O)(=O)c1cc(Cl)sc1Cl)C(=O)O (stereo not drawn) [Code 514]	Weak (More than 1 mM)	Weak (More than 75)
CCCCOCCOCCOC(=O)C(N)Cc1cn[nH]n1 (stereo not drawn) [Code 775]		Maximal (Less than 15)
Cl.Cl.Cn1ncnc1CC(N)C(=O)O (stereo not drawn) [Code 770]		Weak (More than 75)
CCCCOC(=O)C(Cc1nc(Cl)sc1Cl)NC(C)=O (stereo not drawn) [Code 554]		Maximal (Less than 15)
Cl.Cn1cc(CC(N)C(=O)O)nn1 (stereo not drawn) [Code 771]		Weak (More than 75)
COC(=O)C(N)Cc1cc(Cl)sc1Cl (stereo not drawn) [Code 568]		Maximal (Less than 15)
NC(Cc1cc(C(F)(F)F)cs1)C(=O)O (stereo not drawn) [Code 510]		Strong (From 25 to 50)
NC(Cc1csc(Cl)c1)C(=O)O (stereo not drawn) [Code 518]		Strong (From 25 to 50)
N[C@@H](Cc1cn[nH]c1C(F)(F)F)C(=O)O [Code 774]		Very Strong (From 15 to 25)
CCCCOCCOC(=O)C(Cc1nc(Cl)sc1Cl)NC(C)=O (stereo not drawn) [Code 551]		Maximal (Less than 15)
NC(Cc1ccsc1Br)C(=O)O (stereo not drawn) [Code 560]		Strong (From 25 to 50)
Cl.NC(Cc1n[nH]c2ccccc12)C(=O)O (stereo not drawn) [Code 599]	Maximal (0.01 mM and less)	
Cc1nnc(CC(N)C(=O)O)n1C.Cl (stereo not drawn) [Code 773]		Weak (More than 75)
Cl.Cn1nnc(CC(N)C(=O)O)n1 (stereo not drawn) [Code 772]		Moderate (From 50 to 75)
